In patent publication US20140005103A1, “SULFONAMIDE DERIVATIVES AND METHODS OF USE THEREOF FOR IMPROVING THE PHARMACOKINETICS OF A DRUG” (Merck, Sharp & Dohme Corp., priority 2012, published 2014) one finds IC50 data, which are given here for 20 compounds.

In one test the target is T1, CYP1A2 (Homo sapiens, UniProt P05177).
T1 construct: 0.1 mg/mL protein human liver microsomes (BD Gentest); tissue BD Gentest; host or cells: human liver microsomes
T1 sequence (P05177 1-516): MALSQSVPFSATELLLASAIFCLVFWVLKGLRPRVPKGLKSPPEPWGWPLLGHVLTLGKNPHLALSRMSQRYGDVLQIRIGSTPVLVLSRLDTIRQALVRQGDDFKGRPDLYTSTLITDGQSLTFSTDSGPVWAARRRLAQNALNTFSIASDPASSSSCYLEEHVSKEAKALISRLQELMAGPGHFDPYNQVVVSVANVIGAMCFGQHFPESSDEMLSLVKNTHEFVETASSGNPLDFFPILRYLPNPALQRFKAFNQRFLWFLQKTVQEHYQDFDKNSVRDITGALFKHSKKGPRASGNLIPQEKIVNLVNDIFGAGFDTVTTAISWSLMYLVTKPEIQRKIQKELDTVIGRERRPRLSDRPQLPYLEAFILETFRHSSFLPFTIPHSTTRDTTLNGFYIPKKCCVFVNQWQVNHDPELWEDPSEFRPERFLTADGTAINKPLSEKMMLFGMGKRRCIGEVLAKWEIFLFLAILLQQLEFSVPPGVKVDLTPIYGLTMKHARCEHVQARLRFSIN
Put plainly: Cocktail CYP assay, phenacetin O-deethylation. Format: in vitro ADME. The conditions noted are these: human liver microsomes, 10 μM phenacetin; test concentrations up to 10 μM. The method, then:
(§1) Determination of IC50 in a Cocktail Assay for CYPs 1A2, 2C9, 2C19, 2D6 and 3A4
(§2) This assay was performed in a standard 96-well plate design. IC50 values were calculated from the percent inhibition observed for each test compound at 6 concentrations (for example, 0.0032, 0.016, 0.08, 0.4, 2 and 10 μM). The incubation substrate mix contains 10 μM phenacetin (1A2), 5 μM diclofenac (2C9), 30 μM mephenyloin (2C19), 5 μM dextromethorphan (2D6) and 2 μM midazolam (3A4), 0.1 mg/mL protein human liver microsomes (BD Gentest), 1 mM NAPDH, 3.3 mM MgCl2 and 100 mM potassium phosphate buffer (pH 7.4). The production of the metabolite of each probe substrate was determined after incubation for 10 min at 37° C. Quantitation of the metabolite peak area ratio against an internal standard (tolbutamide) was determined by LC/MS/MS analysis following acetonitrile treatment of the incubations.
(§3) Samples were analyzed in the MRM mode with a SCIEX API-4000 mass spectrometer (Applied Biosystems, Foster City, Calif.), with a Shimadzu LC-20 AD pump (Shimadzu corporation, Kyoto, JP) and a CTC PAL autosampler (Agilent Technologies, Switzerland). A Phenomenex, Luna, […], 100 A, 2.00×30 mm HPLC column was used for the separation. The mobile phases were: (A) 0.1% formic acid in water and (B) 0.1% formic acid in acetonitrile. The binary gradient was as follows.
(§4) The peak area ratio of the analyte to the internal standard was used to quantify the metabolite. The values of peak area ratios in the presence of test compound were compared to those of maximum or minimum controls and were expressed as % inhibition by interpolating between the maximum and minimum peak area ratios. Incubations with no inhibitor were defined as the maxima.
(§5) The following equation was used to calculate the % inhibition:
(§6) [1−[(X−Low control)/(High control−Low control)]]*100
(§7) For the IC50 calculation, SigmaPlot was used to plot the mean % inhibition versus the test compound concentrations and for non-linear regression analysis of the data. Depending on the range of data points defining the inhibition curve, the data may have been fit to the 4-parameter logistic equation.
(Microsomes from liver hold many membrane-bound enzymes, among them those of drug oxidation.)

Another test deals with T2, CYP2C19 (Homo sapiens, UniProt P33261).
T2 construct: 0.1 mg/mL protein human liver microsomes (BD Gentest); tissue BD Gentest; host or cells: human liver microsomes
T2 sequence (P33261 whole entry): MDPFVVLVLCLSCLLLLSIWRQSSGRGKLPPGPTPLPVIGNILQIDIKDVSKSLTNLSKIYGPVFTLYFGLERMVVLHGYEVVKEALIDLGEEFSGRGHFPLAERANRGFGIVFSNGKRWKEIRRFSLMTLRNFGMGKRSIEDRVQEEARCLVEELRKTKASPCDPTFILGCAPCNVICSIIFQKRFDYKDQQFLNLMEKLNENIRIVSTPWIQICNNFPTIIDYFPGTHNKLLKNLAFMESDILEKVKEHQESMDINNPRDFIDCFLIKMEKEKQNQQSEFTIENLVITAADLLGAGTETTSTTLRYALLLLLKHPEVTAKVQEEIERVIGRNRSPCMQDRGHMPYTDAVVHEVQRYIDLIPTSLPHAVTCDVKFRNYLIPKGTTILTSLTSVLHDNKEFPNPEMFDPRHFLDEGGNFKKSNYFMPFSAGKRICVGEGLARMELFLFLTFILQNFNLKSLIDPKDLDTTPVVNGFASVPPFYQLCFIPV
The experiment in a line: Cocktail CYP assay, mephenytoin 4'-hydroxylation. Format: in vitro ADME. The conditions noted are these: human liver microsomes, 30 μM mephenytoin; test concentrations up to 10 μM. Here is the method: as §1, §2, §3, §4, §5, §6, §7

A further test deals with T3, CYP2D6 (Homo sapiens, UniProt P10635).
T3 construct: 0.1 mg/mL protein human liver microsomes (BD Gentest); tissue BD Gentest; host or cells: human liver microsomes
T3 sequence (P10635 whole entry): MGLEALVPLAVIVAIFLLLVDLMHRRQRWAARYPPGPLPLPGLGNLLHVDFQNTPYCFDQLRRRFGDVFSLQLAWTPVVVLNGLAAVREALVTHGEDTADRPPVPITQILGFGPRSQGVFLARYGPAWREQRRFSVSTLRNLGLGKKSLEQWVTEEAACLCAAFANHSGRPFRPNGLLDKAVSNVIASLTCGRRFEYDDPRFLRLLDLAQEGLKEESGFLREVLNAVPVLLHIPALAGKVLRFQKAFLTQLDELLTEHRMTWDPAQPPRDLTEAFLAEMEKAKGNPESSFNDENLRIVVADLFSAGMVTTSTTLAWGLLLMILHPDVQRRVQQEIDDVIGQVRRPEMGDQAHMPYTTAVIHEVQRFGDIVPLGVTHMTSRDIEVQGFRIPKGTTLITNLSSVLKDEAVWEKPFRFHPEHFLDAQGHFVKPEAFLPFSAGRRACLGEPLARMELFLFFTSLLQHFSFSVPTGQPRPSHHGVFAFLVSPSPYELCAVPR
Put plainly: Cocktail CYP assay, dextromethorphan O-demethylation. The conditions noted are these: human liver microsomes, 5 μM dextromethorphan; test concentrations up to 10 μM. Format: in vitro ADME. Here is the method:
as §1, §2, §3, §4, §5, §6, §7

In another test the target is T4, human CYP11B2 (Homo sapiens, UniProt P19099).
T4 construct: expressed in transfected cells
T4 sequence (P19099 25-503): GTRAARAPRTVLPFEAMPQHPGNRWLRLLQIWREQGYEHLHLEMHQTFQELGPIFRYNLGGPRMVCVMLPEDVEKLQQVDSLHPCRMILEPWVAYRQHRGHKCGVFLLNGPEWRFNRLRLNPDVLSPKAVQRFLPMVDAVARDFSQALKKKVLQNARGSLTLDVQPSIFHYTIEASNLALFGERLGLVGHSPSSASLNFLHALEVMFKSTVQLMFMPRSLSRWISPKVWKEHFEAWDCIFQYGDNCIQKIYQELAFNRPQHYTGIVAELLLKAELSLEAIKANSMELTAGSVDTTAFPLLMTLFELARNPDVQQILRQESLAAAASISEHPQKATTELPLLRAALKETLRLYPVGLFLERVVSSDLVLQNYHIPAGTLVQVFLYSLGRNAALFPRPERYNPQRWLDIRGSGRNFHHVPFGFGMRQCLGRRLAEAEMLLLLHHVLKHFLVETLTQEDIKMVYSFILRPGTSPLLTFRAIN
Put plainly: IC50 vs CYP11B2 by aldosterone synthesis in V79 cells. In kind it is cell-based. Particulars: V79 cells expressing human CYP11B2, 750 nM DOC, aldosterone HTRF; test concentrations 0.5-10000 nM. The method, then: Determination of IC50 vs CYP11B1/CYP11B2 by Measurement of Cortisol/Aldosterone Synthesis
This assay was performed in a standard 384-well plate design using cultured V79 cells stably expressing human CYP11B1 or human CYP11B2. Test compounds at 10 concentrations (for example, 10000, 3333.3, 1111.1, 370.4, 123.5, 41.2, 13.7, 4.6, 1.5 and 0.5 nM) were added in 384-well plate after the cell-seeding procedure. The incubation substrate contains 1500 nM RSS for CYP11B1 assay/750 nM DOC for CYP11B2 assay. The
Cortisol/Aldosterone production of cell culture supernatant was determined by Cortisol/Aldosterone HTRF kit after for about 15 hours incubation at RT (protect from light). IC50 values were calculated from the percent inhibition observed for each test compound at 10 concentrations.
The assay plate was read using Envision (Perkin Elmer, Waltham, Mass.) at 665 nm and 590 nm (using Filter Barcode of 217#, 205#; Mirror Barcode of 446#).
Data are analyzed using Assay Data Analyzer. All ratio data (665 nm/590 nm) are back calculated according to the standard curve, resulting in Cortisol/Aldosterone concentrations. IC50 values are reported as the Inflection Point (IP) of a four parameter fit of the titration data.
as §5
% Activity=100×{1−(Sample_back calculated Cortisol/Aldosterone concentration−LC_back calculated Cortisol/Aldosterone concentration)/(HC_back calculated Cortisol/Aldosterone concentration−LC_back calculated Cortisol/Aldosterone concentration)}

Where only a bound is given, the exact number is not on record here.

For orientation: IC50 means the point on the concentration scale where inhibition reaches its midpoint. Regarding `C[C@H](c1ccc(F)cc1)n1cncc1CN1CCN(S(=O)(=O)c2cncc(N3CCNCC3)c2)CC1` [Compound 29], the IC50 against CYP1A2 is over 10 µM; against CYP2C19 it was over 10 µM; against CYP2D6, over 10 µM; against human CYP11B2, 4.37 µM.
On to `C[C@H](c1ccc(F)cc1)n1cncc1CN1CCN(S(=O)(=O)c2cnc(N3CC(=O)N4C[C@H](O)C[C@H]4C3)s2)CC1` [Compound 16], for which the IC50 is 1.49 µM against CYP1A2, 8.04 µM on CYP2C19, over 10 µM against CYP2D6 and 4.6 µM against human CYP11B2.
Regarding `C[C@H](c1ccc(F)cc1)n1cncc1CN1CCN(S(=O)(=O)c2cnc(N3C[C@@H]4C[C@@H](O)CN4C[C@@H]3C)s2)CC1` [Compound 21], the IC50 is over 10 µM against CYP1A2, at least 10 µM on CYP2C19, 6.18 µM at CYP2D6 and over 10 µM on human CYP11B2.
In the case of `CN1CCN(c2ncc(S(=O)(=O)N3CCN(Cc4cncn4CCOc4ccc(Cl)cc4)CC3)s2)CC1` [Compound 32], the IC50 against CYP1A2 was over 10 µM; on CYP2C19, 3.44 µM; against CYP2D6, 1.3 µM; against human CYP11B2, 1.03 µM.
For the compound `C[C@H](c1ccc(F)cc1)n1cncc1CN1CCN(S(=O)(=O)c2cnc(N3CCC(N)(CO)CC3)s2)CC1` [Compound 25], the IC50 at CYP1A2 was over 10 µM; on CYP2C19, over 10 µM; on CYP2D6, 8.35 µM; at human CYP11B2, over 10 µM.
On to `C[C@H](c1ccc(F)cc1)n1cncc1CN1CCN(S(=O)(=O)c2cnc(N3CCN(C)CC3)s2)CC1` [Compound 2], for which the IC50 on CYP1A2 was over 10 µM; at CYP2C19, 1.83 µM; against CYP2D6, 8.01 µM; at human CYP11B2, 0.077 µM.
For the compound `Cc1ccc(C2(n3cncc3CN3CCN(S(=O)(=O)c4cnc(N5CCN(C)CC5)s4)CC3)CC2)nc1` [Compound 31], the concentration for half-maximal inhibition (IC50) against CYP1A2, against CYP2C19, at CYP2D6 and against human CYP11B2 was over 10 µM throughout.
Turning to `C[C@H](c1ccc(F)cc1)n1cncc1C1COCC2CN(S(=O)(=O)c3cnc(Nc4ccccn4)s3)CCN21` (some centres unmarked) [Compound 40], the concentration for half-maximal inhibition (IC50) against CYP1A2 is over 10 µM; at CYP2C19 it was 3.05 µM; on CYP2D6 it was 2.89 µM; against human CYP11B2, 3.9 µM.
As for `C[C@H](c1ccc(C#N)cc1)n1cncc1CN1CCN(S(=O)(=O)c2cnc(Nc3ccc(C(F)(F)F)cn3)s2)CC1` [Compound 4], the IC50 at CYP1A2 was over 10 µM; against CYP2C19, 0.721 µM; at CYP2D6, 5.25 µM; on human CYP11B2 it was 0.445 µM.
Consider `C[C@H](c1ccc(F)cc1)n1cncc1CN1CCN(S(=O)(=O)c2cnc(N3CCC4(CC3)CNC(=O)N4)s2)CC1` [Compound 3], for which the IC50 is over 10 µM against CYP1A2, over 10 µM against CYP2C19, 2.7 µM at CYP2D6 and over 10 µM against human CYP11B2.
For the compound `CC1CN(c2ncc(S(=O)(=O)N3CCN(Cc4cncn4[C@H](C)c4ccc(F)cc4)CC3)s2)C[C@@H]2C[C@@H](O)CN12` (some centres unmarked) [Compound 23], the IC50 against CYP1A2 was over 10 µM; at CYP2C19, over 10 µM; against CYP2D6 it was 4.65 µM; against human CYP11B2, 4.57 µM.
For the compound `C[C@H](c1ccc(F)cc1)n1cncc1CN1CCN(S(=O)(=O)c2ccc(N3CCNCC3)cn2)CC1` [Compound 28], the IC50 at CYP1A2 is over 10 µM; on CYP2C19, 3.68 µM; against CYP2D6 it was 6.5 µM; at human CYP11B2 it was 4.64 µM.
On to `C[C@H](c1ccc(F)cc1)n1cncc1CN1CCN(S(=O)(=O)c2cnc(N3CCNCC3)s2)CC1` [Compound 1], for which the 50% inhibitory concentration (IC50) on CYP1A2 was over 10 µM; on CYP2C19 it was 2.53 µM; at CYP2D6, 2.78 µM; against human CYP11B2, 1.72 µM.
For the compound `C[C@H](c1ccc(F)cc1)n1cncc1CN1CCN(S(=O)(=O)c2cnc(N3CC[C@@H](N4CCOCC4)[C@H](F)C3)s2)CC1` [Compound 20], the IC50 on CYP1A2 was 2.77 µM; against CYP2C19, 4.11 µM; at CYP2D6 it was over 10 µM; against human CYP11B2, 2.24 µM.
For the compound `C[C@H](c1ccc(F)cc1)n1cncc1CN1CCN(S(=O)(=O)c2cnc(N3CCN4C[C@H](O)CC[C@H]4C3)s2)CC1` [Compound 19], the IC50 against CYP1A2 was over 10 µM; at CYP2C19, 7.95 µM; against CYP2D6, 7.01 µM; on human CYP11B2 it was 1.93 µM.
With `CC(c1cncn1[C@H](C)c1ccc(F)cc1)N1CCN(S(=O)(=O)c2cnc(N3CCN4C[C@H](O)C[C@H]4C3)s2)CC1` (some centres unmarked) [Compound 37], the half-maximal inhibitory concentration (IC50) at CYP1A2 is 5.81 µM; against CYP2C19 it was over 10 µM; against CYP2D6, over 10 µM; on human CYP11B2 it was 0.193 µM.
For `C[C@H](c1ccc(F)cc1)n1cncc1CN1CCN(S(=O)(=O)c2cnc(N3CCN4C[C@H](O)C[C@H]4C3)s2)CC1` [Compound 5], the IC50 was over 10 µM against CYP1A2, 3.85 µM on CYP2C19, over 10 µM at CYP2D6 and 4.77 µM against human CYP11B2.
For the compound `C[C@H](c1ccc(F)cc1)n1cncc1CN1CCN(S(=O)(=O)c2cnc(N3CCN4CCC(O)[C@H]4C3)s2)CC1` (some centres unmarked) [Compound 27], the IC50 is over 10 µM against CYP1A2, 6.48 µM against CYP2C19, 3.85 µM against CYP2D6 and 2.27 µM on human CYP11B2.
On to `C[C@H](c1ccc(F)cc1)n1cncc1CN1CCN(S(=O)(=O)c2cnc(N3CC[C@@H]4NCCO[C@H]4C3)s2)CC1` [Compound 15], for which the IC50 was over 10 µM at CYP1A2, over 10 µM against CYP2C19, 3.56 µM on CYP2D6 and 3.62 µM on human CYP11B2.
Consider `C[C@H](c1ccc(F)cc1)n1cncc1CN1CCN(S(=O)(=O)c2cnc(NCC(F)CN)s2)CC1` (some centres unmarked) [Compound 17], for which the IC50 was found to be 2.19 µM at CYP1A2, 2.25 µM at CYP2C19, 3.38 µM against CYP2D6 and 9.35 µM on human CYP11B2.
